Laboratory results: PubChem BioAssay (NCI)
“And” between values parts separate entries of the source, which are not always exact repeats. Equal values may be shown once.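 Assay format: 96-well plates, 48-hour exposure. Abbreviation: GI50, concentration required for 50% inhibition of growth. TGI marks complete inhibition of growth.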

Assays:
Assay in all cases: inhibition of tumour cell growth, NCI panel, 48 h
[1] = test system: A498 renal
[2] = test system: DMS 114 small cell lung
[3] = test system: HCT-15 colon
[4] = test system: M19-MEL melanoma
[5] = test system: SW-620 colon
[6] = test system: UACC-62 melanoma
[7] = test system: DMS 273 small cell lung
[8] = test system: HOP-62 NSCLC
[9] = test system: RXF 393 renal
[10] = test system: SNB-19 CNS
[11] = test system: HS 578T breast
[12] = test system: MDA-N

Row | SMILES | TGI [1] | TGI [2] | TGI [3] | TGI [4] | TGI [5] | TGI [6] | TGI [7] | TGI [8] | TGI [9] | TGI [10] | TGI [11] | TGI [12] | GI50 [5] | GI50 [6] | GI50 [8]
1 | CCOC(=O)/C(=C/c1ccco1)P(=O)(OCC)OCC | > 100 µM | > 100 µM | > 100 µM | > 100 µM | > 100 µM | > 100 µM |  |  |  |  |  |  |  |  | 
3 | O=C(c1ccccc1)[C@H]1Nc2cnccc2C2c3ccccc3CC21 (stereo partly drawn) | 75.4 µM | 30.7 µM | 26.9 µM | 23.8 µM | 47.3 µM | > 58.8 µM | > 63.9 µM | > 71.4 µM | 50.4 µM | > 100 µM |  |  |  |  | 
4 | COc1cc(CCCOC2OC(COC3OCC(O)C(O)C3O)C(O)C(O)C2O)cc2cc(-c3ccc4c(c3)OCO4)oc12 (stereo not drawn) | > 27.7 µM | > 175 µM | > 175 µM | > 175 µM | > 175 µM | > 175 µM | > 175 µM | > 175 µM | > 114 µM | > 175 µM |  |  |  |  | 
5 | c1ccc(-c2ccc(N=NN3CCCC3)cc2)cc1 | > 100 µM |  | > 100 µM |  | > 100 µM | > 100 µM |  | > 100 µM | > 100 µM | > 100 µM | > 100 µM | > 100 µM |  |  | 
6 | CC[P+](C#Cc1ccccc1)(c1ccccc1)c1ccccc1 | 21.2 µM |  | 17.7 µM |  | 10.8 µM | 3.45 µM |  | 8.94 µM | 4.39 µM | 17.5 µM | 7.77 µM | 3.44 µM |  |  | 
7 | NS(=O)(=O)c1nnc(NSc2ccc([N+](=O)[O-])cc2)s1 | > 100 µM |  | > 100 µM |  | > 100 µM | > 100 µM |  | > 100 µM | > 100 µM | > 100 µM | > 100 µM | > 100 µM |  |  | 
8 | O=c1cc(-c2ccccc2F)[nH]c2cc3c(cc12)OCO3 | 2.13 µM | 51.7 µM | 4.22 µM | > 100 µM | > 100 µM | > 100 µM | > 100 µM | > 21 µM | > 100 µM | 6.95 µM |  | 0.0396 µM |  |  | 
9 | CC(C)(C)OC(=O)c1ccc(NCc2cc(O)ccc2O)cc1 | 19.5 µM |  | 3.12 µM |  | 14.5 µM | 15.9 µM |  | 41.3 µM | 3.35 µM | 38.8 µM | 18.6 µM | 16.3 µM |  |  | 
10 | COC(=O)C(CCSC)NC(=O)CSc1nnc(COc2ccc(Cl)cc2)n1-c1ccccc1 (stereo not drawn) | 46.7 µM |  | 39.8 µM |  | 49.7 µM | 32.7 µM |  | 23.8 µM | 35.4 µM | 47.1 µM | 55.6 µM | 34.1 µM |  |  | 
11 | CC/C=C\C/C=C\C/C=C\CCCCCCCC(=O)OC(COC(=O)CCCCCCCCCCCCCCCCC)COC1OC(CO)C(O)C(O)C1O (stereo not drawn) | > 25 µM |  | > 25 µM |  | > 25 µM | > 25 µM |  | > 25 µM | > 25 µM | > 25 µM | 18.5 µM | > 25 µM |  |  | 
12 | CC(C)(C)c1ccc2c(c1)OCc1n[nH]c(n1)COc1cc(C(C)(C)C)ccc1OCCOCCO2 | 21.3 µM |  | 18.3 µM |  | 13.1 µM | 10.4 µM |  | 19.2 µM | 4.56 µM | 13.4 µM | 9.16 µM | 12.3 µM |  |  | 
13 | O=[N+]([O-])c1ccc2nc3c(nc2c1)-c1c2ccccc2cc2cccc-3c12 | 2.37 µM |  | > 100 µM |  | > 100 µM | 39.2 µM |  | 77.2 µM | 63.6 µM | > 54.5 µM | 33 µM | 47.9 µM |  |  | 
14 | Cc1cc2c(cc1Cl)SC(NNc1cnc3ccccc3n1)=NS2(=O)=O | 65.7 µM |  | > 100 µM |  | > 100 µM | > 100 µM |  | > 100 µM | > 100 µM | > 100 µM | > 100 µM | > 100 µM |  |  | 
15 | CCN(CC)C(=S)SS(=O)(=O)c1ccc(C)cc1 | > 100 µM |  | > 100 µM |  | 45.2 µM | > 100 µM |  | 85.5 µM | 33.4 µM | > 100 µM | > 100 µM | > 100 µM |  |  | 
16 | O=C1NN=C(c2c[nH]c3ccccc23)CC1NCc1ccccc1 (stereo not drawn) | > 100 µM |  | > 100 µM |  | > 100 µM | > 100 µM |  | > 100 µM | > 100 µM | > 100 µM | > 100 µM | > 100 µM |  |  | 

Row | SMILES | TGI [1] | TGI [2] | TGI [3] | TGI [4] | TGI [5] | TGI [6] | TGI [7] | TGI [8] | TGI [9] | TGI [10] | TGI [11] | TGI [12] | GI50 [5] | GI50 [6] | GI50 [8]
17 | Cc1cc(C)nc(NS(=O)(=O)c2ccc(Nc3c4ccccc4nc4c(C(=O)N5CCN(CCOS(C)(=O)=O)CC5)ccc(Cl)c34)cc2)n1 | > 100 µM | > 100 µM | > 100 µM | > 100 µM |  | > 100 µM | > 100 µM | > 100 µM | > 100 µM | > 100 µM |  |  |  |  | 
18 | NC(=O)NC(=NCc1ccccc1)NCc1ccccc1 |  |  | > 100 µM |  | > 100 µM | > 100 µM | > 100 µM | > 100 µM |  | > 100 µM |  |  |  |  | 
19 | CCOP(=O)(OCC)c1cc(-c2ccccc2)ccc1N | > 100 µM |  | > 100 µM |  | > 100 µM | > 100 µM |  | > 100 µM | > 100 µM | > 100 µM | > 100 µM | > 100 µM |  |  | 
20 | COC(=O)C(=O)C(C(=O)C(=O)Nc1cc([N+](=O)[O-])ccc1C#N)c1nc2ccccc2[nH]c1=O (stereo not drawn) |  | > 100 µM | > 100 µM | > 100 µM | > 100 µM | > 100 µM | > 100 µM | > 100 µM | > 100 µM | > 100 µM |  |  |  |  | 
21 | CCC1C(=O)OCc2c1cc1n(c2=O)CCC12OCCO2 (stereo not drawn) | > 100 µM | > 100 µM | > 100 µM | > 100 µM | > 100 µM | > 100 µM | > 100 µM | > 100 µM |  | > 100 µM |  |  |  |  | 
22 | CC(O)(C(=O)N(O)c1ccc(Cl)cc1)c1ccc(Cl)cc1 (stereo not drawn) | 71.7 µM |  | 65.7 µM |  | > 100 µM | > 100 µM |  | 93 µM | 95.2 µM | > 100 µM | 62.4 µM | > 100 µM |  |  | 
23 | COCC(=O)OC1CCn2c1nc1c2C(=O)C(C)=C(NC(C)=O)C1=O (stereo not drawn) | 49.2 µM | 5.48 µM | 30.1 µM | 25.4 µM | 19.8 µM | 4.16 µM and 7.52 µM | 33.6 µM | 41.1 µM | 5.9 µM and 7.55 µM | 40.5 µM | 16.8 µM | 3.39 µM and 3.4 µM | 3.43 µM | 2080 nM | 
24 | O=C(O)c1cc2ccccc2c(S(=O)(=O)O)c1O | > 100 µM |  | > 100 µM |  | > 100 µM | > 100 µM |  | > 100 µM | > 100 µM | > 100 µM | > 100 µM | > 100 µM |  |  | 
25 | CCOC(=O)C(NC(=O)c1ccc(N=NN(C)C)cc1)C(C)C (stereo not drawn) | > 100 µM | > 100 µM | > 100 µM |  | > 100 µM | > 100 µM | > 100 µM | > 100 µM |  | > 100 µM |  |  |  |  | 
26 | O=CN(O)CC(=O)O | > 100 µM |  | > 100 µM |  | > 100 µM | > 100 µM |  | > 100 µM | > 100 µM | > 100 µM | > 100 µM | > 100 µM |  |  | 
27 | COn1cc(CO)c2ccccc21 | 3.67 µM |  | > 100 µM |  | > 100 µM | > 100 µM |  | > 100 µM | 47.8 µM | > 100 µM | > 100 µM | > 100 µM |  |  | 
28 | Cc1ccc(C(=O)c2[nH]c(Nc3cc(C)ccn3)c(C(=S)Nc3ccccc3)c2N)cc1 | > 100 µM |  | > 100 µM |  | > 100 µM | > 100 µM |  | > 100 µM | > 100 µM | > 100 µM | > 100 µM | > 100 µM |  |  | 
29 | O=C(/C=C1\C[C@H]2C=Nc3ccccc3C(=O)N2C1)NCCCCCNC(=O)/C=C1\C[C@H]2C=Nc3ccccc3C(=O)N2C1 | 33.5 µM |  | 10.6 µM |  | 5.93 µM | 28.8 µM |  | 31.8 µM | 11.6 µM | 31.1 µM | > 67.6 µM | 21.5 µM |  |  | 
30 | Nc1n[nH]c2ccccc12 | > 100 µM |  | > 100 µM |  | > 100 µM | > 100 µM |  | > 100 µM | > 100 µM | > 100 µM | > 100 µM | > 100 µM |  |  | 
31 | Cc1ccc(-n2cc(-c3ccc(Cl)cc3)c3c2N=CN2NC(c4ccco4)=NC32)cc1 (stereo not drawn) | 29.2 µM |  | > 100 µM |  | > 100 µM | 31.5 µM |  | 24 µM | 30.7 µM | 42.6 µM | 7.16 µM | > 100 µM |  |  | 
32 | COc1cc2c3c(n(C)c(=O)c2cc1OC)-c1cc2c(cc1/C3=C/CCCCBr)OCO2 | 87.4 µM |  | > 100 µM |  | > 100 µM | > 100 µM |  | > 100 µM | > 100 µM | > 100 µM | > 100 µM | > 100 µM |  | > 100000 nM | 26.6 µM
